For experiment [1], the target named is T1, Type-1 angiotensin II receptor (Homo sapiens, UniProt P30556).
T1 sequence (P30556 whole entry): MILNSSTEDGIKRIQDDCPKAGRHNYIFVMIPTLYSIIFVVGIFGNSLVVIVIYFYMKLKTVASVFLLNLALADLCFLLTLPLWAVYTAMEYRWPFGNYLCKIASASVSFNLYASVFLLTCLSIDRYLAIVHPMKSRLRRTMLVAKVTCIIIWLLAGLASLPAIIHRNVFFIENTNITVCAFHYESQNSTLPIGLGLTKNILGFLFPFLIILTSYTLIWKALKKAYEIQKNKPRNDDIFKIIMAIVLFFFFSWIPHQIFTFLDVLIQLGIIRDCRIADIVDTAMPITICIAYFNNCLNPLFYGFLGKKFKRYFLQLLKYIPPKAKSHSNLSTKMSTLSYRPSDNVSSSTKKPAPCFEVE
The experiment is described as follows: antagonism of angiotensin II type 1 receptor – cell-based, uHTS hits, selectivity assay for APJ receptor antagonist project, dose response (AID 463214).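 Note: antagonist potency against angiotensin II stimulated AT1 response.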 The format is functional.

Another experiment is described as follows: cells. The format is functional.
Experiment [2] has as its target T2, Beta-galactosidase (Escherichia coli, UniProt Q8VNN2). The format is functional.
The target in experiment [3] is T2, Beta-galactosidase. Kind of experiment: PubChem AID 485352. The format is functional.
The target in a further experiment is Nonstructural protein 1 (Influenza A virus, UniProt Q194T2). The format is functional, Influenza A virus (A/California/07/2009(H1N1)).
Nonstructural protein 1, sequence (Q194T2 whole entry): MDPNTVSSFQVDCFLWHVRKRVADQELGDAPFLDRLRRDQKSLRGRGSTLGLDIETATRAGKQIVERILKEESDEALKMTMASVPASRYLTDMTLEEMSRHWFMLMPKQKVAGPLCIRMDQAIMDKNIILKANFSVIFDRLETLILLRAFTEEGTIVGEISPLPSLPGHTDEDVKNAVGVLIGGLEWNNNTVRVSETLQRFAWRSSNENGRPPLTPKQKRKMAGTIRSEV
Experiment [4] in a line: viability loss in THP-1 monocytes – THP-1 cells, cytotoxicity control for Vif-APOBEC3G degradation inhibitor project, dose response (AID 1117359). The conditions noted are these: THP-1. The format is functional.
The target in experiment [5] is T3, Kappa-type opioid receptor (Homo sapiens, UniProt P41145). The format is functional.
T3 sequence (P41145 whole entry): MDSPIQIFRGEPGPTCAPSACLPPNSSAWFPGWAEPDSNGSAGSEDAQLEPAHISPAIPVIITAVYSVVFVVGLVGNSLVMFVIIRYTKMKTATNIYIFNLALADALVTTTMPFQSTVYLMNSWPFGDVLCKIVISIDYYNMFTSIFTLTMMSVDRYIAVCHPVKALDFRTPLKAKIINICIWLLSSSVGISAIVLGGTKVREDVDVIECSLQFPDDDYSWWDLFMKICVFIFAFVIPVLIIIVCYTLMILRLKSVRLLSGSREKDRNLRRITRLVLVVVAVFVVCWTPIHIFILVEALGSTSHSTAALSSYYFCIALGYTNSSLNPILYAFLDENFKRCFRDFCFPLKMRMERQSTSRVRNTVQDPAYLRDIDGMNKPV
The next experiment has as its system INS1. The experiment is described as follows: INS-1E survival protection against cytokine death – cell-based, luminescence, retest, dose response (AID 449756).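 Note: cell death triggered by IL-1 beta plus TNF-alpha plus IFN-gamma mixture; protective hits raise ATP signal compared with cytokine alone wells.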 The format is functional. Particulars: Rattus norvegicus.
Experiment [6] has as its target T4, Microphthalmia-associated transcription factor (Homo sapiens, UniProt O75030).
T4 sequence (O75030 whole entry): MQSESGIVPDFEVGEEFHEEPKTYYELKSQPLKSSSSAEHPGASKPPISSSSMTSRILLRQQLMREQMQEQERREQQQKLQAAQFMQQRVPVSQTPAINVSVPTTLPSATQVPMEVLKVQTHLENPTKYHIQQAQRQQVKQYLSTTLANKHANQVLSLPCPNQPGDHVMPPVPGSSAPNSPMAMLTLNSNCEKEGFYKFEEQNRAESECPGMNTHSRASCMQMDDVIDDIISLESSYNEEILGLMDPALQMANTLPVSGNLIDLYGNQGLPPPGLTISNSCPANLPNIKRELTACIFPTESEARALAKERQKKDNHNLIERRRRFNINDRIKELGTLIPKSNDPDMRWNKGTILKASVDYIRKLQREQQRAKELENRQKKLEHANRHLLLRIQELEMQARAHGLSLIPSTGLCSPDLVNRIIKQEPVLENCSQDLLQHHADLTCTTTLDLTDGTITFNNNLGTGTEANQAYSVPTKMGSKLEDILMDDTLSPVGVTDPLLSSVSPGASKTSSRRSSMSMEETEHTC
The experiment is described as follows: reducers of TRPM1 reporter luminescence, concentration series – cell-based, SK-MEL-5, cherry-picked, set 3, MITF inhibitor project, dose response (AID 493073).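 Note: SK-MEL-5 melanoma cells with luciferase driven by the MITF target TRPM1 promoter.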 The format is functional.

A short description of experiment [7]: THP-1 cell cytotoxicity, dose response, cytotoxicity control for non-replicating M. tuberculosis project (AID 489025). The format is functional.
Experiment [8] in a line: HepG2 cell cytotoxicity, dose response, cytotoxicity control for non-replicating M. tuberculosis project (AID 489018). The format is functional. Particulars: Mycobacterium tuberculosis.
Experiment [9] concerns the target T3, Kappa-type opioid receptor. The format is functional. The source holds these as a separate data set.
Experiment [10] is described as follows: Vero E6 cell cytotoxicity, dose response, cytotoxicity control for non-replicating M. tuberculosis project, secondary assay (AID 492998). The format is functional, VeroE6. The conditions noted are these: Vero C1008.
For experiment [11], the target named is T4, Microphthalmia-associated transcription factor. The experiment is described as follows: MITF Measured in Cell-Based System Using Plate Reader - 2084-01_Inhibitor_DoseNoFile_CherryPick_Activity_Set2. [Related pubchem assays (depositor defined):AID488944]. The format is functional.
The target is the same in experiment [12]. Kind of experiment: reducers of TRPM1 reporter luminescence, concentration series – cell-based, SK-MEL-5, cherry-picked, set 4, MITF inhibitor project, dose response (AID 493102). The format is functional.
In experiment [13] the target is T5, Replicative DNA helicase DnaB (Mycobacterium tuberculosis, UniProt P9WMR3).
T5 sequence (P9WMR3 whole entry): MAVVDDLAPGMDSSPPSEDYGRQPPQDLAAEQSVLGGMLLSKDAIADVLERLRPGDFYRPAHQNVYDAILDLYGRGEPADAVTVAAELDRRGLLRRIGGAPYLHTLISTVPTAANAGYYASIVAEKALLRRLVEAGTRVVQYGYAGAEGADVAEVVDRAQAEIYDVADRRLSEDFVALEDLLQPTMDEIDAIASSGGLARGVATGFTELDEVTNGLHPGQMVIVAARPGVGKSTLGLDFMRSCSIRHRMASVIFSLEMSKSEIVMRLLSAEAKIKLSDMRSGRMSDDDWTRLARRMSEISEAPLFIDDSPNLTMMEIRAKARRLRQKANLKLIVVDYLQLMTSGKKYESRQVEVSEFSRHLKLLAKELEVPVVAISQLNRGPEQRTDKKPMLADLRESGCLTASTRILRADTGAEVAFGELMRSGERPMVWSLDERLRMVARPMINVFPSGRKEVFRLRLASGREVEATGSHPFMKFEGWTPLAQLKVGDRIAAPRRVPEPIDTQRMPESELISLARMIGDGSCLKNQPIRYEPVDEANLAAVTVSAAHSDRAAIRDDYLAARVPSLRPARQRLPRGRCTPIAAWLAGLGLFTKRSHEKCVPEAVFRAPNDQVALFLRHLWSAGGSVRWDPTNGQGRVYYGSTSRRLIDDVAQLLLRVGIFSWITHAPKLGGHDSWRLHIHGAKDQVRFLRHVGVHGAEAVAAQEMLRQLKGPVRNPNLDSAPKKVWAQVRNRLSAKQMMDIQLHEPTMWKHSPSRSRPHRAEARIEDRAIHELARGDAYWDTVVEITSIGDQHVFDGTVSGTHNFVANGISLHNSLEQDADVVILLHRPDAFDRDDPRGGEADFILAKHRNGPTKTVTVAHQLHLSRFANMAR
The experiment is described as follows: DnaB intein splicing inhibitors, dose response, biochemical, cell-free fluorescence (AID 449749). The format is functional.

The nature of experiment [14]: Intein inhibitors as potential Tuberculosis drugs, a cytotoxicity screen. [Related pubchem assays (depositor defined):AID2221, AID2223, AID434968, AID435010, AID449749, AID449750, AID489010]. The format is functional.
A further experiment concerns the target T6, Protein RecA (Mycobacterium tuberculosis, UniProt P9WHJ3).
T6 sequence (P9WHJ3 whole entry): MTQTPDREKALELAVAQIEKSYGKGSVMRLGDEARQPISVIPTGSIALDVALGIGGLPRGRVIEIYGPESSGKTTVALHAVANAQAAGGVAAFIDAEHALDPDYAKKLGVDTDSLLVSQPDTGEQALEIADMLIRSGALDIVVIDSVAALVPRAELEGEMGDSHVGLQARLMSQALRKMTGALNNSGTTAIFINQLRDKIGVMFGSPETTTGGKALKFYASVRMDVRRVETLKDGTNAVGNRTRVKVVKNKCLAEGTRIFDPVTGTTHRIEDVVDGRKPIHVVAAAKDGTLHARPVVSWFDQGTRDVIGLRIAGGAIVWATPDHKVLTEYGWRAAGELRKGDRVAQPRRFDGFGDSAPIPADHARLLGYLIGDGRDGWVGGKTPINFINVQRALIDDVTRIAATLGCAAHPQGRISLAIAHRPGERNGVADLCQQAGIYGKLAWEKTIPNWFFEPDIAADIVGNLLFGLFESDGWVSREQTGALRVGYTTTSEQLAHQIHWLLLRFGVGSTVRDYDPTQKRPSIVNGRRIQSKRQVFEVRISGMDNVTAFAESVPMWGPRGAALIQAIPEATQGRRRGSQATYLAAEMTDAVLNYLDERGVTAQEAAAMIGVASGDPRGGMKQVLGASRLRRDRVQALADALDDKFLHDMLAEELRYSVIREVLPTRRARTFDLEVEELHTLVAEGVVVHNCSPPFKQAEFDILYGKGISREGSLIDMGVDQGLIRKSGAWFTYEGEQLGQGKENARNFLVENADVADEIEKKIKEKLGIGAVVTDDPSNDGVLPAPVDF
Kind of experiment: Fluorescence Cell-Free Homogeneous Dose Retest to Identify Inhibitors of RecA-Intein Splicing Activity. [Related pubchem assays (depositor defined):AID2097, AID2223, AID489010, AID492950]. The format is functional.

Experiment [15] has as its target Benomyl/methotrexate resistance protein (Candida albicans, UniProt P28873). The experiment is described as follows: Candida albicans Mdr1 pump inhibition curves – singleplex, Cherry Pick1 hits, dose response (AID 588608). The format is functional.
Experiment [16] in a line: HEK-293T cell viability reduction – luminescence, B-cell screen hits, cytotoxicity control for BCR NF-kB inhibitor project, dose response (AID 489021).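 Note: HEK-293T cells carrying an NF-kB luciferase reporter; cells exposed to compound for about 14 hours before viability readout.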 The format is functional, cell-based.
The next experiment deals with Vero. The experiment is described as follows: cells. Particulars: Chlorocebus sabaeus. The format is functional.
The nature of experiment [17]: Luminescent dose response cell-based high throughput screening assay for inhibitors of the Janus kinase 2 mutant JAK2V617F. [Related pubchem assays: 1446 (Primary screen.), 1521 (Confirmation assay.), 1486 (Counter screen.)]. The format is functional.

Active and inactive are the calls of the source.

T2 sequence (Q8VNN2 whole entry): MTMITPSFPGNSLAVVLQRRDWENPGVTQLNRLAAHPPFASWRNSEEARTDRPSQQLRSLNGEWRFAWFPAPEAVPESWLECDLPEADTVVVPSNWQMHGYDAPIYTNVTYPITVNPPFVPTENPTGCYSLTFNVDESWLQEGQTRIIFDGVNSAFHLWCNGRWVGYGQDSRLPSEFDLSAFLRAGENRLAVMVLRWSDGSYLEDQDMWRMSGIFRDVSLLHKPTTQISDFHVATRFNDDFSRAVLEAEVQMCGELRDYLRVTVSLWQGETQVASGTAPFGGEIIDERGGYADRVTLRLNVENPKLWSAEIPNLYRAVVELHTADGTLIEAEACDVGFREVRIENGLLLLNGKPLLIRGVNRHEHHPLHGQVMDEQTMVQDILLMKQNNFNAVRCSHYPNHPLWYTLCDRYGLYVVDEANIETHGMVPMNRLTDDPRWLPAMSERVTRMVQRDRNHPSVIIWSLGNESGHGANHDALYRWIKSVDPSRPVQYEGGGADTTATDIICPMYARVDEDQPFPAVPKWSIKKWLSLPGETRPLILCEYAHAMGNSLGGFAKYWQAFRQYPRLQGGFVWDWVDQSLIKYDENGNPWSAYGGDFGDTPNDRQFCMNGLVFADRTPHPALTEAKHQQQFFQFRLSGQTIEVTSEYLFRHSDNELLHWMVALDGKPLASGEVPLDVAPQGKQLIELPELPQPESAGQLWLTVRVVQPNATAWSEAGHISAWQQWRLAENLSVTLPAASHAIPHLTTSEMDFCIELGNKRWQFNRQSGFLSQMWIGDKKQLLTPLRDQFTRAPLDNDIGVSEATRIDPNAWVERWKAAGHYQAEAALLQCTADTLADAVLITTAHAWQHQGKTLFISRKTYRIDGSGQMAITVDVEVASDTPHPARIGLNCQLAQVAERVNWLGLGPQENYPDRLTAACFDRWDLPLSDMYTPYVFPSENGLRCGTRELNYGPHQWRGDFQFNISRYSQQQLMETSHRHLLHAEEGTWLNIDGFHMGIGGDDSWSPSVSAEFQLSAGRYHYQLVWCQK
Benomyl/methotrexate resistance protein, sequence (P28873 whole entry): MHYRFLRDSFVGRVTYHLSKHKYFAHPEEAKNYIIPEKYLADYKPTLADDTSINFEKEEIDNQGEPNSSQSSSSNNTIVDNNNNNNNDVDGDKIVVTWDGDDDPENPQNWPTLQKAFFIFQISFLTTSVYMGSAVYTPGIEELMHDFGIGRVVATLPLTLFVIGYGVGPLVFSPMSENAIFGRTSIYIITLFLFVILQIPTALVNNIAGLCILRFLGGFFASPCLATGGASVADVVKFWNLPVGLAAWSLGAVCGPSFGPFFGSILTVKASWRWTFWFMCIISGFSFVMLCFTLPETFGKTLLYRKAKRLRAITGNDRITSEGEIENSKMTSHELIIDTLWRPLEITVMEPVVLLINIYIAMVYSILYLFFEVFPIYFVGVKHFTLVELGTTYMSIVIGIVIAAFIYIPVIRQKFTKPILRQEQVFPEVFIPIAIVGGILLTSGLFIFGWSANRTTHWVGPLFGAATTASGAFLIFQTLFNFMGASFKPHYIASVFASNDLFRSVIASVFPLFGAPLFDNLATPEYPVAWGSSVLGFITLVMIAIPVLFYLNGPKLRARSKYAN

With `C/C(=N\NC(=O)C(C)Oc1ccc([N+](=O)[O-])cc1)c1ccccn1` (stereo not drawn), the IC50 (usually the concentration that inhibits the measured activity by half) in experiment [1] is 9.48 µM (active); in the experiment “cells” it was 6.28 µM (active); on Nonstructural protein 1 it was 6.88 µM (active); in [5], greater than 32 µM; in [9], 3.19 µM (active). Moreover, the EC50 (as a rule, the midpoint of the concentration-response curve) at Beta-galactosidase [2] is > 31.5 µM (inactive); on Beta-galactosidase [3], > 40 µM (inactive). The half-maximal cytotoxic concentration (CC50) – broadly, the concentration at which the toxic effect on the cells reaches its halfway point – in [4] was 1.8 µM (active); in experiment [7], 1.54 µM (active); in [8] it was 8.26 µM (active); in experiment [10], 3.54 µM (active). Also, the AC50 (commonly the midpoint of the concentration-response curve, whichever way the signal moves) in the experiment with INS1 was 1.12 µM (active); in experiment [6] it was 2.38 µM (active).

In the case of `CCCCN=c1nc(S)n(-c2ccccc2)c(C)c1C(C)=O`, the AC50 in [11], in [12] and in experiment [6] was > 350 µM (inactive) in each case.

Turning to `COc1ccc2nc(C)cc(Sc3nc4ccccc4s3)c2c1`, in experiment [13], the AC50 was 2.87 µM (active). The results for the CC50 (in experiment [14]; with Vero) were 26.4 µM (active) and 14.3 µM (active), respectively. The EC50 was 2.89 µM (active) at Protein RecA and 0.479 µM (active) in experiment [15]. Further, the values for the IC50 in [16] and in experiment [17] were > 80 µM (inactive) and 1.91 µM (active), respectively.

The values above are taken from ChEMBL document CHEMBL1201862, “PubChem BioAssay data set” (2004).
